Test system: MV-4-11 cells
Assay: Gene expression microarray analysis (Affymetrix PrimeView) and GSEA
Format: cell-based, human
Design: RFU PODN (11730768_x_at) / Fold change /veh PODN (11730768_x_at) / RFU LINC00158 (11744669_a_at) / Fold change /veh LINC00158 (11744669_a_at) / RFU DUSP10 (11751237_a_at) / Fold change /veh DUSP10 (11751237_a_at) / RFU ID3 (11757404_x_at) / Fold change /veh ID3 (11757404_x_at) / RFU PLEKHG5 (11737974_s_at) / Fold change /veh PLEKHG5 (11737974_s_at) / RFU LRRC4B (11730491_at) / Fold change /veh LRRC4B (11730491_at) / RFU GIMAP4 (11747438_a_at) / Fold change /veh GIMAP4 (11747438_a_at) / RFU KRT8 (11758183_x_at) / Fold change /veh KRT8 (11758183_x_at) / RFU CNN1 (11734310_a_at) / Fold change /veh CNN1 (11734310_a_at) / RFU VPS37D (11726825_at) / Fold change /veh VPS37D (11726825_at) / RFU C10orf10 (11716522_x_at) / Fold change /veh C10orf10 (11716522_x_at) / RFU KIR2DL2 /// KIR2DL4 /// KIR2DL5A /// KIR2DL5B /// KIR2DS1 /// KIR2DS2 /// KIR2DS3 /// KIR2DS4 /// KIR3DL3 /// KIR3DL3 /// KIR3DS1 (11738374_at) / Fold change /veh KIR2DL2 /// KIR2DL4 /// KIR2DL5A /// KIR2DL5B /// KIR2DS1 /// KIR2DS2 /// KIR2DS3 /// KIR2DS4 /// KIR3DL3 /// KIR3DL3 /// KIR3DS1 (11738374_at) / RFU C1QL1 (11718748_at) / Fold change /veh C1QL1 (11718748_at) / RFU TMPRSS4 (11747572_a_at) / Fold change /veh TMPRSS4 (11747572_a_at) / RFU HAMP (11756126_x_at) / Fold change /veh HAMP (11756126_x_at) / RFU RNFT2 (11725882_a_at) / Fold change /veh RNFT2 (11725882_a_at) / RFU NR4A2 (11747474_a_at) / Fold change /veh NR4A2 (11747474_a_at) / RFU ABCC12 (11746883_a_at) / Fold change /veh ABCC12 (11746883_a_at) / RFU TMEM136 (11760407_x_at) / Fold change /veh TMEM136 (11760407_x_at) / RFU CLDN22 /// WWC2 (11732394_at) / Fold change /veh CLDN22 /// WWC2 (11732394_at) / RFU HLA-DPB1 (11760878_x_at) / Fold change /veh HLA-DPB1 (11760878_x_at) / RFU SPINT1 (11716480_a_at) / Fold change /veh SPINT1 (11716480_a_at) / RFU GAP43 (11754022_s_at) / Fold change /veh GAP43 (11754022_s_at) / RFU A4GNT (11735810_at) / Fold change /veh A4GNT (11735810_at) / RFU PRB3 (11715151_x_at) / Fold change /veh PRB3 (11715151_x_at) / RFU TUBB4B (11761932_at) / Fold change /veh TUBB4B (11761932_at) / RFU CAPN14 (11732068_a_at) / Fold change /veh CAPN14 (11732068_a_at) / RFU TMCC2 (11721928_a_at) / Fold change /veh TMCC2 (11721928_a_at) / RFU IRGQ (11745062_a_at) / Fold change /veh IRGQ (11745062_a_at) / RFU FAM174B (11720279_a_at) / Fold change /veh FAM174B (11720279_a_at) / RFU TMPRSS4 (11748680_a_at) / Fold change /veh TMPRSS4 (11748680_a_at) / RFU FAM212B (11763350_a_at) / Fold change /veh FAM212B (11763350_a_at) / RFU PLEKHG5 (11743358_a_at) / Fold change /veh PLEKHG5 (11743358_a_at) / RFU ZSCAN30 (11745921_a_at) / Fold change /veh ZSCAN30 (11745921_a_at) / RFU CMKLR1 (11741424_a_at) / Fold change /veh CMKLR1 (11741424_a_at) / RFU LOC101060620 /// MAPK8IP1 (11723275_at) / Fold change /veh LOC101060620 /// MAPK8IP1 (11723275_at) / RFU SPTSSB (11747773_x_at) / Fold change /veh SPTSSB (11747773_x_at) / RFU PRSS12 (11739890_at) / Fold change /veh PRSS12 (11739890_at) / RFU BIN1 (11741810_x_at) / Fold change /veh BIN1 (11741810_x_at) / RFU WNT11 (11732464_a_at) / Fold change /veh WNT11 (11732464_a_at) / RFU C10orf10 (11716521_a_at) / Fold change /veh C10orf10 (11716521_a_at) / RFU C5orf56 (11738089_at) / Fold change /veh C5orf56 (11738089_at) / RFU CYB561 (11721691_x_at) / Fold change /veh CYB561 (11721691_x_at) / RFU ANKRD19P (11752326_a_at) / Fold change /veh ANKRD19P (11752326_a_at) / RFU OR2T12 /// OR2T33 /// OR2T8 (11738714_s_at) / Fold change /veh OR2T12 /// OR2T33 /// OR2T8 (11738714_s_at) / RFU VCAN (11748164_a_at) / Fold change /veh VCAN (11748164_a_at) / RFU JSRP1 (11732532_at) / Fold change /veh JSRP1 (11732532_at) / RFU KRTAP10-11 (11738290_x_at) / Fold change /veh KRTAP10-11 (11738290_x_at) / RFU MYO3A (11730013_a_at) / Fold change /veh MYO3A (11730013_a_at) / RFU EBF3 (11725865_a_at) / Fold change /veh EBF3 (11725865_a_at) / RFU CAMK2N1 (11719241_x_at) / Fold change /veh CAMK2N1 (11719241_x_at) / RFU C5orf56 (11738088_a_at) / Fold change /veh C5orf56 (11738088_a_at) / RFU OLFML3 (11715873_a_at) / Fold change /veh OLFML3 (11715873_a_at) / RFU LOC100653217 /// NTM (11731650_a_at) / Fold change /veh LOC100653217 /// NTM (11731650_a_at) / RFU MAPK11 (11762145_a_at) / Fold change /veh MAPK11 (11762145_a_at) / RFU FIZ1 (11724087_x_at) / Fold change /veh FIZ1 (11724087_x_at) / RFU OASL (11726364_x_at) / Fold change /veh OASL (11726364_x_at) / RFU SOX15 (11748057_x_at) / Fold change /veh SOX15 (11748057_x_at) / RFU CD79A (11719716_a_at) / Fold change /veh CD79A (11719716_a_at) / RFU HIST1H1D (11736915_at) / Fold change /veh HIST1H1D (11736915_at) / RFU CASKIN2 (11723855_a_at) / Fold change /veh CASKIN2 (11723855_a_at) / RFU LOC730098 (11760151_x_at) / Fold change /veh LOC730098 (11760151_x_at) / RFU OR4N2 (11742367_at) / Fold change /veh OR4N2 (11742367_at) / RFU PRRT2 (11749266_a_at) / Fold change /veh PRRT2 (11749266_a_at) / RFU SNX32 (11753110_a_at) / Fold change /veh SNX32 (11753110_a_at) / RFU CDHR5 (11726645_a_at) / Fold change /veh CDHR5 (11726645_a_at) / RFU RCAN1 (11760418_a_at) / Fold change /veh RCAN1 (11760418_a_at) / RFU FAM167A (11723789_a_at) / Fold change /veh FAM167A (11723789_a_at) / RFU FAM26E (11764081_at) / Fold change /veh FAM26E (11764081_at) / RFU ISYNA1 (11749810_s_at) / Fold change /veh ISYNA1 (11749810_s_at) / RFU ACY1 (11761880_at) / Fold change /veh ACY1 (11761880_at) / RFU 11764098_at / Fold change /veh 11764098_at / RFU SAMD14 (11745864_x_at) / Fold change /veh SAMD14 (11745864_x_at) / RFU NPB (11741838_a_at) / Fold change /veh NPB (11741838_a_at) / RFU TMPRSS6 (11731388_a_at) / Fold change /veh TMPRSS6 (11731388_a_at) / RFU KRTAP10-2 (11738614_at) / Fold change /veh KRTAP10-2 (11738614_at) / RFU ARHGAP8 /// PRR5-ARHGAP8 (11727945_x_at) / Fold change /veh ARHGAP8 /// PRR5-ARHGAP8 (11727945_x_at) / RFU KRTAP5-7 /// NADSYN1 (11734609_at) / Fold change /veh KRTAP5-7 /// NADSYN1 (11734609_at) / RFU RASL12 (11751679_a_at) / Fold change /veh RASL12 (11751679_a_at) / RFU CDKN2B (11736163_a_at) / Fold change /veh CDKN2B (11736163_a_at) / RFU PRF1 (11729649_at) / Fold change /veh PRF1 (11729649_at) / RFU, ZNF638 /// ZNF638-IT1 / Fold change vs veh, ZNF638 /// ZNF638-IT1 / RFU, PANK3 / Fold change vs veh, PANK3 / RFU, SH3YL1 / Fold change vs veh, SH3YL1 / RFU, ZEB2 / Fold change vs veh, ZEB2 / RFU, NRIP1 / Fold change vs veh, NRIP1 / RFU, PTTG1IP / Fold change vs veh, PTTG1IP / RFU, CAPN2 / Fold change vs veh, CAPN2 / RFU, MED14 / Fold change vs veh, MED14 / RFU, SNORA58 / Fold change vs veh, SNORA58 / RFU, C1orf63 / Fold change vs veh, C1orf63 / RFU, LRRFIP1 / Fold change vs veh, LRRFIP1 / RFU, NDUFAF7 / Fold change vs veh, NDUFAF7 / RFU, SLC12A2 / Fold change vs veh, SLC12A2 / RFU, IBTK / Fold change vs veh, IBTK / RFU, ESF1 / Fold change vs veh, ESF1 / Fold change vs veh, TMEM50B / RFU, TAOK1 / Fold change vs veh, TAOK1 / RFU, ACBD3 / Fold change vs veh, ACBD3 / RFU, TMA16 / Fold change vs veh, TMA16 / RFU, RWDD3 / Fold change vs veh, RWDD3 / RFU, BCAT1 / Fold change vs veh, BCAT1 / RFU, EDEM3 / Fold change vs veh, EDEM3 / RFU, TMEM33 / Fold change vs veh, TMEM33 / RFU, WDR75 / Fold change vs veh, WDR75 / RFU, AHCTF1 / Fold change vs veh, AHCTF1 / RFU, TFRC / Fold change vs veh, TFRC / RFU, ZDHHC17 / Fold change vs veh, ZDHHC17 / RFU, NOM1 / Fold change vs veh, NOM1 / RFU, ARL8B / Fold change vs veh, ARL8B / RFU, ZBTB11 / Fold change vs veh, ZBTB11 / RFU, TAMM41 / Fold change vs veh, TAMM41 / RFU, KIAA1704 /// LOC100996395 / Fold change vs veh, KIAA1704 /// LOC100996395 / RFU, ING1 / Fold change vs veh, ING1 / RFU, TRMT61B / Fold change vs veh, TRMT61B / RFU, FUBP3 / Fold change vs veh, FUBP3 / RFU, TP53 / Fold change vs veh, TP53 / RFU, TNKS2 / Fold change vs veh, TNKS2 / RFU, ZFP14 / Fold change vs veh, ZFP14 / RFU, ACTR2 / Fold change vs veh, ACTR2 / RFU, PPP3R1 / Fold change vs veh, PPP3R1 / RFU, PIK3R1 / Fold change vs veh, PIK3R1 / RFU, HNRNPA1 / Fold change vs veh, HNRNPA1 / RFU, RNF170 / Fold change vs veh, RNF170 / RFU, ZNF28 / Fold change vs veh, ZNF28 / RFU, RNGTT / Fold change vs veh, RNGTT / RFU, OGT / Fold change vs veh, OGT / RFU, BRD1 / Fold change vs veh, BRD1 / RFU, MARS / Fold change vs veh, MARS / RFU, ZNF655 / Fold change vs veh, ZNF655 / RFU, FAHD1 / Fold change vs veh, FAHD1 / RFU, BDP1 / Fold change vs veh, BDP1 / RFU, LRRCC1 / Fold change vs veh, LRRCC1 / RFU, ARID1A / Fold change vs veh, ARID1A / RFU, ZNF146 / Fold change vs veh, ZNF146 / RFU, ZNF330 / Fold change vs veh, ZNF330 / RFU, GPN3 / Fold change vs veh, GPN3 / RFU, C9orf123 / Fold change vs veh, C9orf123 / RFU, N4BP2L2 / Fold change vs veh, N4BP2L2 / RFU, ARFIP1 / Fold change vs veh, ARFIP1 / RFU, FAM179B / Fold change vs veh, FAM179B / RFU, BCL10 / Fold change vs veh, BCL10 / RFU, UHRF1BP1L / Fold change vs veh, UHRF1BP1L / RFU, BET1 / Fold change vs veh, BET1 / RFU, CNOT2 / Fold change vs veh, CNOT2 / RFU, ZNF268 / Fold change vs veh, ZNF268 / Fold change vs veh, ZNF507 / RFU, DGCR2 / Fold change vs veh, DGCR2 / RFU, WDSUB1 / Fold change vs veh, WDSUB1 / Fold change vs veh, HSP90B1 /// MIR3652 / RFU, ADSS / Fold change vs veh, ADSS / RFU, GK / Fold change vs veh, GK / RFU, ZNF148 / Fold change vs veh, ZNF148 / RFU, TAF9 / Fold change vs veh, TAF9 / RFU, SLC1A5 / Fold change vs veh, SLC1A5 / RFU, SLMO2 / Fold change vs veh, SLMO2 / RFU, ABCC4 / Fold change vs veh, ABCC4 / RFU, LOC101060439 /// RAP1B / Fold change vs veh, LOC101060439 /// RAP1B / RFU, RFX7 / Fold change vs veh, RFX7 / RFU, GTPBP10 / Fold change vs veh, GTPBP10 / RFU, CNEP1R1 / Fold change vs veh, CNEP1R1 / RFU, BIVM-ERCC5 /// ERCC5 / Fold change vs veh, BIVM-ERCC5 /// ERCC5 / RFU, ILF3 / Fold change vs veh, ILF3 / RFU 11762660_at / Fold change /veh 11762660_at / RFU VCAN (11757783_s_at) / Fold change /veh VCAN (11757783_s_at) / RFU DDX43 (11728927_at) / Fold change /veh DDX43 (11728927_at) / RFU KRT8 (11758188_x_at) / Fold change /veh KRT8 (11758188_x_at) / RFU NKD1 (11759106_at) / Fold change /veh NKD1 (11759106_at) / RFU SRD5A1 (11742802_a_at) / Fold change /veh SRD5A1 (11742802_a_at) / RFU TPSAB1 /// TPSB2 (11721975_s_at) / Fold change /veh TPSAB1 /// TPSB2 (11721975_s_at) / RFU GSTM3 (11746129_a_at) / Fold change /veh GSTM3 (11746129_a_at) / RFU IL23R (11737362_x_at) / Fold change /veh IL23R (11737362_x_at) / RFU TMEM51 (11727254_a_at) / Fold change /veh TMEM51 (11727254_a_at) / RFU PIWIL2 (11732686_x_at) / Fold change /veh PIWIL2 (11732686_x_at) / RFU ORM1 (11744905_x_at) / Fold change /veh ORM1 (11744905_x_at) / RFU CCDC152 (11743942_at) / Fold change /veh CCDC152 (11743942_at) / RFU ECM1 (11717891_a_at) / Fold change /veh ECM1 (11717891_a_at) / RFU IL23R (11748794_a_at) / Fold change /veh IL23R (11748794_a_at) / RFU TNFAIP8L3 (11732012_x_at) / Fold change /veh TNFAIP8L3 (11732012_x_at) / RFU MBOAT4 (11741988_at) / Fold change /veh MBOAT4 (11741988_at) / RFU 11764193_at / Fold change /veh 11764193_at / RFU TMEM53 (11763286_at) / Fold change /veh TMEM53 (11763286_at) / RFU MAGEB2 (11727129_at) / Fold change /veh MAGEB2 (11727129_at) / RFU TMEM200A (11744735_a_at) / Fold change /veh TMEM200A (11744735_a_at) / RFU CCDC152 (11751479_a_at) / Fold change /veh CCDC152 (11751479_a_at) / RFU FAM211A (11726209_a_at) / Fold change /veh FAM211A (11726209_a_at) / RFU RGS16 (11746705_a_at) / Fold change /veh RGS16 (11746705_a_at) / RFU VCAN (11755009_s_at) / Fold change /veh VCAN (11755009_s_at) / RFU RHOB (11743442_s_at) / Fold change /veh RHOB (11743442_s_at) / RFU RGS16 (11720943_a_at) / Fold change /veh RGS16 (11720943_a_at) / RFU RGS16 (11720944_at) / Fold change /veh RGS16 (11720944_at) / RFU, VPS4B / Fold change vs veh, VPS4B / RFU, CREB1 / Fold change vs veh, CREB1 / RFU, DNAJC13 / Fold change vs veh, DNAJC13 / RFU, GNAQ / Fold change vs veh, GNAQ / RFU, CDK5R1 / Fold change vs veh, CDK5R1 / RFU, ZRANB3 / Fold change vs veh, ZRANB3 / RFU, CUL4A / Fold change vs veh, CUL4A / RFU, CCNY / Fold change vs veh, CCNY / RFU, UFL1 / Fold change vs veh, UFL1 / RFU, COG3 / Fold change vs veh, COG3 / RFU, DIAPH2 / Fold change vs veh, DIAPH2 / RFU, SKA2 / Fold change vs veh, SKA2 / RFU, AFF3 / Fold change vs veh, AFF3 / RFU, LMF1 / Fold change vs veh, LMF1 / RFU, IPO11 / Fold change vs veh, IPO11 / RFU, DFFB / Fold change vs veh, DFFB / RFU, FOXP1 / Fold change vs veh, FOXP1 / RFU, CARD8 / Fold change vs veh, CARD8 / RFU, STRN3 / Fold change vs veh, STRN3 / RFU, ADK / Fold change vs veh, ADK / RFU, RASSF2 / Fold change vs veh, RASSF2 / RFU, WIPF1 / Fold change vs veh, WIPF1 / RFU, LARP1B / Fold change vs veh, LARP1B / RFU, RASA1 / Fold change vs veh, RASA1 / RFU, RB1 / Fold change vs veh, RB1 / RFU, PPFIA1 / Fold change vs veh, PPFIA1 / RFU, MAT2A / Fold change vs veh, MAT2A / RFU, CCT5 / Fold change vs veh, CCT5 / RFU, WDR92 / Fold change vs veh, WDR92 / RFU, CUX1 / Fold change vs veh, CUX1 / RFU, TTC7A / Fold change vs veh, TTC7A / RFU, TMEM135 / Fold change vs veh, TMEM135 / RFU, DEPTOR / Fold change vs veh, DEPTOR / RFU, CPM / Fold change vs veh, CPM / RFU, DNAJB6 / Fold change vs veh, DNAJB6 / RFU, CACNA2D3 / Fold change vs veh, CACNA2D3 / RFU, DTX4 / Fold change vs veh, DTX4 / RFU, TFCP2 / Fold change vs veh, TFCP2 / RFU, GMCL1 /// GMCL1P1 / Fold change vs veh, GMCL1 /// GMCL1P1 / RFU, AEBP2 / Fold change vs veh, AEBP2 / RFU, SNHG1 /// SNORD22 /// SNORD25 /// SNORD26 /// SNORD27 /// SNORD28 /// SNORD29 /// SNORD31 / Fold change vs veh, SNHG1 /// SNORD22 /// SNORD25 /// SNORD26 /// SNORD27 /// SNORD28 /// SNORD29 /// SNORD31 / Fold change (Aza/veh), C12orf56 (ProbeSet 11735607_a_at) / Fold change (ACY-1035/veh), C12orf56 (ProbeSet 11735607_a_at) / Fold change (Aza/veh), FGFR1OP (ProbeSet 11751329_s_at) / Fold change (ACY-1035/veh), FGFR1OP (ProbeSet 11751329_s_at) / Fold change (Aza/veh), VPS36 (ProbeSet 11739960_a_at) / Fold change (ACY-1035/veh), VPS36 (ProbeSet 11739960_a_at) / RFU SYPL1 (11715823_x_at) / Fold change /veh SYPL1 (11715823_x_at) / RFU IGFBP7 (11715501_s_at) / Fold change /veh IGFBP7 (11715501_s_at) / RFU REEP3 (11722064_at) / Fold change /veh REEP3 (11722064_at) / RFU IGLL1 (11728026_x_at) / Fold change /veh IGLL1 (11728026_x_at): dose or concentration left out as unconfirmed
Details: ProbeSet 11733108_at; LIST D

How did the “RFU, GNAQ” value turn out when `Nc1ncn([C@@H]2O[C@H](CO)[C@@H](O)[C@H]2O)c(=O)n1` [azacitidine] was run?
Its value is 233.19 RFU.
